Measurements reported in US10259808B2 (Genentech, Inc., priority 2015, dated 2019).
pIC50: −log10 of the molar value. Counter-ions that a name gives are not always drawn.

What follows are molecules tested against T1, RORc ligand binding domain (Homo sapiens, UniProt P51449) (assay: In vitro RORc ligand binding assay (25-[3H]hydroxycholesterol displacement)). Details: not given.
T1 sequence (P51449 269-508 limits assumed): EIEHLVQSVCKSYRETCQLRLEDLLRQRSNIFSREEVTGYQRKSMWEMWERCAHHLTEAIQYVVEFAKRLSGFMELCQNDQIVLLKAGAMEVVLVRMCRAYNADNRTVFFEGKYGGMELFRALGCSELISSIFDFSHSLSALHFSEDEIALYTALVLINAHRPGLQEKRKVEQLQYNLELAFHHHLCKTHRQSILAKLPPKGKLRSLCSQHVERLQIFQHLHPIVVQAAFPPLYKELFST

Compound	pIC50
C[C@H]1CC[C@H](c2ccccc2)S(=O)(=O)N1Cc1ccc(C2(C(=O)n3nccc3N)CCOCC2)cc1F	7.71
Cc1nnc(COCC2(c3ccc(CN4[C@@H](C)CC[C@H](c5ccccc5)S4(=O)=O)c(F)c3)CCOCC2)o1	7.04
C[C@H]1CC[C@H](c2ccccc2)S(=O)(=O)N1Cc1ccc(C2(C(=O)NC3CCOCC3)CCOCC2)cc1F	6.77
C[C@H]1CC[C@@H](c2ccccc2)S(=O)(=O)N1Cc1cc(F)c([C@]2(c3c[nH]c(=O)o3)C[C@@](O)(C3(C)CC3)C2)cc1F (racemic) [Example 166, 5-[1-[2,5-difluoro-4-[[rac-(3S,6S)-3-methyl-1,1-dioxo-6-phenyl-thiazinan-2-yl]methyl]phenyl]-3-hydroxy-3-(1-methylcyclopropyl)cyclobutyl]-3H-oxazol-2-one]	7.81
C[C@H]1CC[C@H](c2ccccc2)S(=O)(=O)N1Cc1cc(F)c([C@]2(c3nn(C)c(=O)[nH]3)C[C@@](C)(O)C2)cc1F (racemic) [Example 168, 5-[1-[2,5-difluoro-4-[[rac-(3S,6R)-3-methyl-1,1-dioxo-6-phenyl-thiazinan-2-yl]methyl]phenyl]-3-hydroxy-3-methyl-cyclobutyl]-2-methyl-4H-1,2,4-triazol-3-one]	7.40
COC[C@]1(O)C[C@@](c2n[nH]c(=O)o2)(c2cc(F)c(CN3[C@@H](C)CC[C@H](c4ccccc4)S3(=O)=O)cc2F)C1 (racemic) [Example 169, 5-[1-[2,5-difluoro-4-[[rac-(3S,6R)-3-methyl-1,1-dioxo-6-phenyl-thiazinan-2-yl]methyl]phenyl]-3-hydroxy-3-(methoxymethyl)cyclobutyl]-3H-1,3,4-oxadiazol-2-one]	8.19
C[C@H]1CC[C@H](c2ccccc2)S(=O)(=O)N1Cc1cc(F)c([C@]2([C@@H](O)Cc3ncn[nH]3)C[C@](C)(O)C2)cc1F (racemic) [Example 170, 3-[2,5-difluoro-4-[[rac-(3S,6R)-3-methyl-1,1-dioxo-6-phenyl-thiazinan-2-yl]methyl]phenyl]-1-methyl-3-[rac-(1S)-1-hydroxy-2-(1H-1,2,4-triazol-5-yl)ethyl]cyclobutanol]	7.53
C[C@H]1CC[C@H](c2ccccc2)S(=O)(=O)N1Cc1cc(F)c([C@]2([C@H](O)Cc3ncn[nH]3)C[C@](C)(O)C2)cc1F (racemic) [Example 171, 3-[2,5-difluoro-4-[[rac-(3S,6R)-3-methyl-1,1-dioxo-6-phenyl-thiazinan-2-yl]methyl]phenyl]-1-methyl-3-[rac-(1R)-1-hydroxy-2-(1H-1,2,4-triazol-5-yl)ethyl]cyclobutanol]	7.30
C[C@H]1CC[C@H](c2ccccc2)S(=O)(=O)N1Cc1cc(F)c([C@]2([C@H]3CNC(=O)O3)C[C@](C)(O)C2)cc1F (racemic) [Example 172, rac-(5S)-5-[1-[2,5-difluoro-4-[[rac-(3S,6R)-3-methyl-1,1-dioxo-6-phenyl-thiazinan-2-yl]methyl]phenyl]-3-hydroxy-3-methyl-cyclobutyl]oxazolidin-2-one]	7.28
C[C@H]1CC[C@H](c2ccccc2)S(=O)(=O)N1Cc1cc(F)c([C@]2(c3n[nH]c(=O)o3)C[C@](C)(N)C2)cc1F (racemic) [Example 173, 5-[3-amino-1-[2,5-difluoro-4-[[rac-(3S,6R)-3-methyl-1,1-dioxo-6-phenyl-thiazinan-2-yl]methyl]phenyl]-3-methyl-cyclobutyl]-3H-1,3,4-oxadiazol-2-one; hydrochloride]	6.74

The next lines start with the values.

pIC50	Compound
7.64	C[C@H]1CC[C@H](c2ccccc2)S(=O)(=O)N1Cc1cc(F)c([C@]2(c3nn(CC#N)c(=O)o3)C[C@](C)(O)C2)cc1F (racemic) [Example 174, 2-[5-[1-[2,5-difluoro-4-[[rac-(3S,6R)-3-methyl-1,1-dioxo-6-phenyl-thiazinan-2-yl]methyl]phenyl]-3-hydroxy-3-methyl-cyclobutyl]-2-oxo-1,3,4-oxadiazol-3-yl]acetonitrile]
7.21	C[C@H]1CC[C@H](c2ccccc2)S(=O)(=O)N1Cc1cc(F)c([C@]2(c3noc(=O)[nH]3)C[C@@](C)(O)C2)cc1F (racemic) [Example 175, 3-[1-[2,5-difluoro-4-[[rac-(3S,6R)-3-methyl-1,1-dioxo-6-phenyl-thiazinan-2-yl]methyl]phenyl]-3-hydroxy-3-methyl-cyclobutyl]-4H-1,2,4-oxadiazol-5-one]
8.27	C[C@H]1CC[C@H](c2ccccc2)S(=O)(=O)N1Cc1cc(F)c([C@]2(c3n[nH]c(=O)o3)C[C@@](O)(CC#N)C2)cc1F (racemic) [Example 176, 2-[3-[2,5-difluoro-4-[[rac-(3S,6R)-3-methyl-1,1-dioxo-6-phenyl-thiazinan-2-yl]methyl]phenyl]-1-hydroxy-3-(2-oxo-3H-1,3,4-oxadiazol-5-yl)cyclobutyl]acetonitrile]
8.21	C[C@H]1CC[C@H](c2ccccc2)S(=O)(=O)N1Cc1cc(F)c([C@]2(Cn3cn[nH]c3=O)C[C@](C)(O)C2)cc1F (racemic) [Example 178, 4-[[1-[2,5-difluoro-4-[[rac-(3S,6R)-3-methyl-1,1-dioxo-6-phenyl-thiazinan-2-yl]methyl]phenyl]-3-hydroxy-3-methyl-cyclobutyl]methyl]-1H-l,2,4-triazol-5-one]
5.16	C[C@H]1CC[C@H](c2ccccc2)S(=O)(=O)N1Cc1cc(F)c([C@]2(CN3C(=O)CNC3=O)C[C@](C)(O)C2)cc1F (racemic) [Example 179, 3-[[1-[2,5-difluoro-4-[[rac-(3S,6R)-3-methyl-1,1-dioxo-6-phenyl-thiazinan-2-yl]methyl]phenyl]-3-hydroxy-3-methyl-cyclobutyl]methyl]imidazolidine-2,4-dione]
8.10	C[C@H]1CC[C@H](c2ccccc2)S(=O)(=O)N1Cc1cc(F)c([C@]2(COc3cnccn3)C[C@](C)(O)C2)cc1F (racemic) [Example 180, 3-[2,5-difluoro-4-[[rac-(3S,6R)-3-methyl-1,1-dioxo-6-phenyl-thiazinan-2-yl]methyl]phenyl]-1-methyl-3-(pyrazin-2-yloxymethyl)cyclobutanol]
7.89	C[C@H]1CC[C@H](c2ccccc2)S(=O)(=O)N1Cc1cc(F)c([C@]2(NC(=O)c3csnn3)C[C@](C)(O)C2)cc1F (racemic) [Example 181, N-[1-[2,5-difluoro-4-[[rac-(3S,6R)-3-methyl-1,1-dioxo-6-phenyl-thiazinan-2-yl]methyl]phenyl]-3-hydroxy-3-methyl-cyclobutyl]thiadiazole-4-carboxamide]
8.14	C[C@H]1CC[C@H](c2ccccc2)S(=O)(=O)N1Cc1cc(F)c([C@]2(Cn3cncn3)C[C@](C)(O)C2)cc1F (racemic) [Example 182, 3-[2,5-difluoro-4-[[rac-(3S,6R)-3-methyl-1,1-dioxo-6-phenyl-thiazinan-2-yl]methyl]phenyl]-1-methyl-3-(1,2,4-triazol-1-ylmethyl)cyclobutanol]
6.77	C[C@H]1CC[C@H](c2ccccc2)S(=O)(=O)N1Cc1cc(F)c([C@]2(Cn3ncccc3=O)C[C@](C)(O)C2)cc1F (racemic) [Example 183, 2-[[1-[2,5-difluoro-4-[[rac-(3S,6R)-3-methyl-1,1-dioxo-6-phenyl-thiazinan-2-yl]methyl]phenyl]-3-hydroxy-3-methyl-cyclobutyl]methyl]pyridazin-3-one]
8.21	C[C@H]1CC[C@H](c2ccccc2)S(=O)(=O)N1Cc1cc(F)c(C2(c3c[nH]c(=O)o3)CC(O)(CC3CC3)C2)cc1F (mixture of isomers) [Example 184, 5-[3-(cyclopropylmethyl)-1-[2,5-difluoro-4-[[rac-(3S,6R)-3-methyl-1,1-dioxo-6-phenyl-thiazinan-2-yl]methyllphenyl]-3-hydroxy-cyclobutyl]-3H-oxazol-2-one]
7.72	C[C@H]1CC[C@H](c2ccccc2)S(=O)(=O)N1Cc1cc(F)c([C@]2(c3c[nH]c(=O)[nH]3)C[C@](C)(O)C2)cc1F (racemic) [Example 185, 4-[1-[2,5-difluoro-4-[[rac-(3S,6R)-3-methyl-1,1-dioxo-6-phenyl-thiazinan-2-yl]methyl]phenyl]-3-hydroxy-3-methyl-cyclobutyl]-1,3-dihydroimidazol-2-one]
8.36	C[C@H]1CC[C@H](c2ccccc2)S(=O)(=O)N1Cc1cc(F)c([C@]2(c3nc(CO)n[nH]3)C[C@](C)(O)C2)cc1F (racemic) [Example 186, 3-[2,5-difluoro-4-[[rac-(3S,6R)-3-methyl-1,1-dioxo-6-phenyl-thiazinan-2-yl]methyl]phenyl]-3-[3-(hydroxymethyl)-1H-1,2,4-triazol-5-yl]-1-methyl-cyclobutanol]
8.00	C[C@H]1CC[C@H](c2ccccc2)S(=O)(=O)N1Cc1cc(F)c([C@]2(NCC3(C)COC3)C[C@](C)(O)C2)cc1F (racemic) [Example 187, 3-[2,5-difluoro-4-[[rac-(3S,6R)-3-methyl-1,1-dioxo-6-phenyl-thiazinan-2-yl]methyl]phenyl]-1-methyl-3-[(3-methyloxetan-3-yl)methylamino]cyclobutanol]

Same assay, conditions: IC50 values for RORc

pIC50	Compound
8.37	C[C@H]1CC[C@H](c2ccccc2)S(=O)(=O)N1Cc1cc(F)c(C2(c3c[nH]c(=O)o3)CC(O)C2)cc1F (mixture of isomers) [Example 163, 5-[1-[2,5-difluoro-4-[[rac-(3S,6R)-3-methyl-1,1-dioxo-6-phenyl-thiazinan-2-yl]methyl]phenyl]-3-hydroxy-cyclobutyl]-3H-oxazol-2-one]
7.72	C[C@H]1CC[C@H](c2ccccc2)S(=O)(=O)N1Cc1cc(F)c([C@]2(c3nn(C)c(=O)o3)C[C@](C)(O)C2)cc1F (racemic) [Example 167]
8.37	C[C@H]1CC[C@H](c2ccccc2)S(=O)(=O)N1Cc1cc(F)c(C2(c3c[nH]c(=O)o3)CC(O)C2)cc1F (mixture of isomers) [Example 177, 5-[1-[2,5-difluoro-4-[[rac-(3S,6R)-3-methyl-1,1-dioxo-6-phenyl-thiazinan-2-yl]methyl]phenyl]-3-hydroxy-cyclobutyl]-3H-oxazol-2-one]
